Four molecules from US20140120087A1, “TRIAZOLOPYRIDINES” (BAYER INTELLECTUAL PROPERTY GMBH, priority 2011, published 2014) can be followed below.

A short description of series [1]: Hydrolytic stability assay at pH 2. In kind it is physicochemical. As to conditions: buffer pH 2, 37° C., compounds of the invention. The procedure, abridged:
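Compound from a 10 mM DMSO stock was diluted in acetonitrile, added to pH 2 buffer and incubated at 37° C. HPLC injections were made at time zero and after 1, 2 and 24 hrs. Decay (%) was calculated from peak areas relative to the time-zero injection.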

Series [2] addresses T1, Mps-1 kinase (Homo sapiens, UniProt P33981).
T1 sequence (P33981 1-857): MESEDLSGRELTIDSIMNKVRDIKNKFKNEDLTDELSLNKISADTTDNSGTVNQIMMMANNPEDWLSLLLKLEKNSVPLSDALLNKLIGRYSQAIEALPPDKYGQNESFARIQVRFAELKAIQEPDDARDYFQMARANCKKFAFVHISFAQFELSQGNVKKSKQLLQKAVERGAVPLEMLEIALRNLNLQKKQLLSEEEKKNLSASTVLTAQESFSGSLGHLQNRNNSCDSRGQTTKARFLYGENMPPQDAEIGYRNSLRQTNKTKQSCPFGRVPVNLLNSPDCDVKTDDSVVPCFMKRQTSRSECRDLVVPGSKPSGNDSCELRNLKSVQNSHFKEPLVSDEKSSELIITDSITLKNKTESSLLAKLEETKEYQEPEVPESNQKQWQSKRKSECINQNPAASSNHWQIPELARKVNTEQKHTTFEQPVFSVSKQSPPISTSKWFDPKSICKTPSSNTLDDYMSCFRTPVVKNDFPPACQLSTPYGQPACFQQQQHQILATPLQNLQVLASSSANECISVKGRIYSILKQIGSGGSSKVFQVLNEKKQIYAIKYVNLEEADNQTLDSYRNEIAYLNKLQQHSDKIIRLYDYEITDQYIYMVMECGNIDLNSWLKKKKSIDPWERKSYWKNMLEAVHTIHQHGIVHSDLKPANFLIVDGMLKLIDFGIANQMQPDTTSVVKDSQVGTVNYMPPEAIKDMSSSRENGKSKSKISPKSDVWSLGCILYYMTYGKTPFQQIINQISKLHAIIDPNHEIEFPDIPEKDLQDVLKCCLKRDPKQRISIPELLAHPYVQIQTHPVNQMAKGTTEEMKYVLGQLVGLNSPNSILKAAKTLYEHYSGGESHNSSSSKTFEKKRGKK
Put plainly: Mps-1 kinase assay with 2 mM ATP (TR-FRET). (In general: Time-resolved FRET reads energy transfer from a long-lived donor to a nearby acceptor.)

For series [3], the target named is T1, Mps-1 kinase. The series can be described thus: Mps-1 kinase assay with 10 μM ATP (TR-FRET).

The term IC50 denotes the concentration at which inhibition is half-maximal. Low values mean greater potency in that assay, high ones weaker potency in that assay.

As for `CCN(CC)C(=O)c1ccc(Nc2nc3ccc(-c4ccc(NC(=O)Cc5ccc(F)cc5)cc4)cn3n2)c(OCC(F)(F)F)c1` [Example 01.22, N,N-diethyl-4-{[6-(4-{[(4-fluorophenyl)acetyl]amino}phenyl)[1,2,4]triazolo-[1,5-α]pyridin-2-yl]amino}-3-(2,2,2-trifluoroethoxy)benzamide], the “Hydrolysis at pH 2; Decay in % after 24 h” value (shortened to “Hydrolysis … in % after 24 h”) in series [1] is on record as below 10%. Further, the IC50 against Mps-1 kinase [2] and against Mps-1 kinase [3] was at most 1 nM each time.

As for `CCNC(=O)c1ccc(Nc2nc3ccc(-c4ccc(C(=O)NCc5ccc(F)cc5)cc4)cn3n2)c(OC)c1` [Example 02.20, N-ethyl-4-[(6-{4-[(4-fluorobenzyl)carbamoyl]phenyl}[1,2,4]triazolo[1,5-α]-pyridin-2-yl)amino]-3-methoxybenzamide], in series [1], the “Hydrolysis … in % after 24 h” value is given as below 10%. Further, the IC50 was 1.7 nM against Mps-1 kinase [2] and at most 1 nM at Mps-1 kinase [3].

For the molecule `COc1cc(S(C)(=O)=O)ccc1Nc1nc2ccc(-c3ccc(C(=O)NCc4ccc(F)cc4)cc3)cn2n1` [Example 02.6, N-(4-fluorobenzyl)-4-(2-{[2-methoxy-4-(methylsulfonyl)phenyl]amino}-[1,2,4]triazolo[1,5-α]pyridin-6-yl)benzamide], the “Hydrolysis … in % after 24 h” value in series [1] is listed as below 10%. Moreover, the IC50 at Mps-1 kinase [2] is 4.3 nM; against Mps-1 kinase [3], at most 1 nM.

As for `CC(C)(O)CNC(=O)c1ccc(Nc2nc3ccc(-c4ccc(C(=O)NCc5ccc(F)cc5)cc4)cn3n2)c(OCC(F)(F)F)c1` [Example 02.22, 4-[(6-{4-[(4-fluorobenzyl)carbamoyl]phenyl}[1,2,4]triazolo[1,5-α]pyridin-2-yl)amino]-N-(2-hydroxy-2-methylpropyl)-3-(2,2,2-trifluoroethoxy)benzamide], in series [1], the “Hydrolysis … in % after 24 h” value was below 10%. Also, the concentration for half-maximal inhibition (IC50) on Mps-1 kinase [2] and at Mps-1 kinase [3] was at most 1 nM each time.
